Here are results for one compound from patent US20100260852A1, “LAXATIVE AGENT” (priority 2007, published 2010).

SMILES strings stand for the structures.

Common to all, as to assay type: in vivo, rat
What all share (settings): 300 mg/Kg p.o.

Experiment [1] deals with male rats (SPF). Put plainly: Water immersion stress gastric mucosa damage test. The protocol:
A water immersion stress gastric mucosa damage test was conducted on male rats (SPF) using the composite magnesium oxide particles obtained in Example 5. For comparison, magnesium oxide manufactured by Kyowa Chemical Industry Co., Ltd. was used.
(§1) administration route: oral administration applied dose: 5 mL/Kg administration means: administered by using a disposable injection cylinder and a sonde for oral administration administration time: administered 60 minutes before the preparation of a gastric mucosa damaged model
(§2) After about 24 hours of fasting, the rats were put into a stress cage (manufactured by Natsume Seisakusho Co., Ltd.), and the cage was immersed in a water tank at 23° C. 6 hours after that, the blood was removed from the rats to kill them under anesthesia with pentobarbital sodium (40 mg/Kg, i.p.), and the stomachs of these rats were extracted. 10 mL of a 1% formalin solution was injected into the stomachs to immerse them in the solution for 10 minutes or more. The stomachs were cut open along the greater curvature to measure the length (mm) of a damage by a stereomicroscope. The total of damages of each rat was taken as the damage coefficient of the rat.

Experiment [2] deals with male rats (SPF). Put plainly: Ethanol-inducted gastric mucosa damage test. The protocol: as §1, §2
An ethanol-inducted gastric mucosa damage test was conducted on male rats (SPF) by using the composite magnesium oxide particles obtained in Example 5. For comparison, magnesium oxide manufactured by Kyowa Chemical Industry Co., Ltd. was used.
After about 24 hours of fasting, 1 mL of ethanol (99.5%) was orally administered to each rat. […]

Experiment [3] concerns male rats (SPF). Put plainly: Indometacin-inducted gastric mucosa damage test. The protocol: as §1, §2
An indometacin-inducted gastric mucosa damage test was conducted on male rats (SPF) by using the composite magnesium oxide particles obtained in Example 5. For comparison, magnesium oxide manufactured by Kyowa Chemical Industry Co., Ltd. was used.
After about 24 hours of fasting, 30 mg/Kg of indometacin (15 mg/mL: suspended by using a 0.5% methylcellulose aqueous solution) was subcutaneously administered to each rat. […]

Experiment [4] deals with male rats (SPF). Put plainly: Aspirin-inducted gastric mucosa damage test. The protocol: as §1, §2
An aspirin-inducted gastric mucosa damage test was conducted on male rats (SPF) by using the composite magnesium oxide particles obtained in Example 5. For comparison, magnesium oxide manufactured by Kyowa Chemical Industry Co., Ltd. was used.
After about 24 hours of fasting, 125 mg/Kg of aspirin (62.5 mg/mL: suspended by using a methylcellulose aqueous solution) was orally administered to each rat twice every 2 hours. […]

The subject of experiment [5] is male rats (SPF). Put plainly: Gastric ulceration test (acetic acid ulceration models). The protocol:
The influence of the composite magnesium oxide particles obtained in Example 3 upon gastric ulceration was investigated using male rats (SPF). For comparison, magnesium oxide particles (MgO) manufactured by Kyowa Chemical Industry Co., Ltd. were used. The rats were abdominally operated under anesthesia with pentobarbital sodium (10 mg/Kg, i.p.), 30 μL of 20% acetic acid was injected into the submucosal coat at the boundary between the body of stomach and the vestibular region of the pyloric from the serosal side to prepare acetic acid ulceration models. […] On the day following the last administration, the stomachs of the models were extracted under anesthesia with pentobarbital sodium (40 mg/Kg, i.p.) to measure the long diameter and short diameter (mm) of an ulcer.

Regarding `[O]=[Mg]` [Comparative example, magnesium oxide], the “Damage coefficient (Lesions)” value in experiment [1] (60 min before, water immersion stress 23° C., 6 hours, 6 rats) is 18.1 ± 3.6 mm; in experiment [2] (1 mL ethanol (99.5%) orally, 1 hour, 6 rats) it was 25.5 ± 8.9 mm; in experiment [3] (indometacin 30 mg/Kg s.c., 5 hours, 6 rats) it was 0.0 ± 0.0 mm; in experiment [4] (aspirin 125 mg/Kg orally twice, 4 hours after second, 6 rats), 27.8 ± 4.3 mm. For the same compound, the Inhibition ratio in experiment [1] (water immersion stress) is 56%; in experiment [2] (ethanol-inducted), 48%; in experiment [3] (indometacin-inducted) it was 100%; in experiment [4] (aspirin-inducted), 43%. In addition, the “Inhibition ratio of gastric lesion” value in experiment [5] was found to be 19%. The “Damage coefficient (Lesions area)” value in experiment [5] (once each day for 10 days, 6 rats) amounted to 5.2 ± 1.0 mm^2.
